Assay results: patent US4454291A, “N-(2-Substituted-1-oxoalkyl)-2,3-dihydro-1H-indole-2-carboxylic acid derivatives” (American Home Products Corporation, priority 1982, dated 1984)
Where a name gives a salt, the structure may show the parent alone. Square brackets hold non-standard residues; d marks the D form. Ends that are not written are not given here. pGlu = O=C1CC[C@@H](C(=O)O)N1

How the values were obtained:
hypertension [1] = conditions: cited from earlier work
[2] = molecular target: T1, angiotensin converting enzyme (Oryctolagus cuniculus, UniProt P12822); experiment: In vitro assay for angiotensin converting enzyme inhibition utilizing rabbit lung extract (Cushman et al.), hippuryl-L-histidyl-L-leucine substrate; assay type: biochemical
T1 construct: utilizing the rabbit lung extract; from tissue; host or cells: rabbit lung extract
T1 sequence (P12822 34-1310): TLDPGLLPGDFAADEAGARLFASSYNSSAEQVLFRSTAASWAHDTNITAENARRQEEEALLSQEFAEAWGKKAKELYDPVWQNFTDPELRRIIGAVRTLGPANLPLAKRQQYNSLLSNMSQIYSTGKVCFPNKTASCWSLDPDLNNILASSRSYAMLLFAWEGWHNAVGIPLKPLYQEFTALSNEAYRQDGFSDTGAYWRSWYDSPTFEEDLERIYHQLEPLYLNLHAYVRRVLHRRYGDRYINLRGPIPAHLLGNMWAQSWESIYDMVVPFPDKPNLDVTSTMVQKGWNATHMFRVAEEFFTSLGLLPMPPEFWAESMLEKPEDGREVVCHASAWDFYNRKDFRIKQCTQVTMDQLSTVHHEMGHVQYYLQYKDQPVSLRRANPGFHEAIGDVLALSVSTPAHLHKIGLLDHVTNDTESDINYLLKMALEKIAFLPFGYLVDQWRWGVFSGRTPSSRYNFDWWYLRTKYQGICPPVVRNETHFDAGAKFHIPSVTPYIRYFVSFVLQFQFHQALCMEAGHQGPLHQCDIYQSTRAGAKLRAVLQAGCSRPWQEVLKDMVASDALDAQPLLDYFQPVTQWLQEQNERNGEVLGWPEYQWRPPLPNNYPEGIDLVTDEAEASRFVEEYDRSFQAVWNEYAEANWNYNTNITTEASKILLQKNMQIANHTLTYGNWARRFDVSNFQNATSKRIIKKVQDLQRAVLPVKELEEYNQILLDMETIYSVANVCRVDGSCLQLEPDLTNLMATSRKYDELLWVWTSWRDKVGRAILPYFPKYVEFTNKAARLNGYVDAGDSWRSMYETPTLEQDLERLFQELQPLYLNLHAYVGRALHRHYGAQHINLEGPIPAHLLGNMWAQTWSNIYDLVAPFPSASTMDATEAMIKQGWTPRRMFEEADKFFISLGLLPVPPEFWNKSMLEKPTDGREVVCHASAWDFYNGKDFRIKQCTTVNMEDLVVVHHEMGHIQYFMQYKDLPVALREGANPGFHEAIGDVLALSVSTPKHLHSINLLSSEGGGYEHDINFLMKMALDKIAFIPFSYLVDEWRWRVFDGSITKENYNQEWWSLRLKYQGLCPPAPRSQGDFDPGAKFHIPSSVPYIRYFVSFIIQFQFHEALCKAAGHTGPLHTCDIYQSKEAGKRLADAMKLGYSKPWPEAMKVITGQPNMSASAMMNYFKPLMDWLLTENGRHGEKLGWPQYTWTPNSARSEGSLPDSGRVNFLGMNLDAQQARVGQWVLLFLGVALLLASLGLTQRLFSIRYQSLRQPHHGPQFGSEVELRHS
Protocol: The angiotensin converting enzyme (ACE) inhibitory property of the compounds is measured in vitro and in vivo. The in vitro assay utilizes rabbit lung extract and a specific tripeptide substrate, hippuryl-L-histidyl-L-leucine being preferred, and follows the method of Cushman et al., Biochem. Pharmacol., 20, 1637-1648 (1971).
In the in vitro assay for angiotensin converting enzyme inhibition utilizing the rabbit lung extract according to the procedure of Cushman et al., Biochem. Pharmacol., 20, 1637-1648 (1971), the following results were obtained: […]

[3] = tested on: spontaneously hypertensive rat; experiment: Anti-hypertensive effect in the spontaneously hypertensive rat (systolic pressure, indirect caudal plethysmograph); assay type: in vivo, male); conditions: oral, 4 subjects
Protocol: The anti-hypertensive effect of the compounds of the invention is measured in the spontaneously hypertensive rat. In this procedure systolic pressure of male spontaneously hypertensive rats is measured by an indirect technique using the Decker Caudal Plethysmograph or other appropriate sensor. Groups usually consist of 4 or more rats. Drugs are usually administered orally. Pressures are usually read prior to drug administration and at 1.5, 4 and 24 hours thereafter. This schedule may be altered depending upon the behavior of the drug.
This procedure measures the hypotensive effect of the subject compounds in a hypertensive subject using a single dose and measuring the response over a 24 hour period. When administered orally according to this procedure, compounds of the invention produced a significant decrease in blood pressures in doses of 1-50 mg/kg. When used to treat hypertension in warm-blooded animals doses of less than 15 mg/kg./day would be utilized, and preferably doses of less than 5 mg/kg./day. Such effective treatment doses would generally be administered in long-term antihypertensive therapy.

[4] = tested on: vasopressor action of Angiotensin I; experiment: In vivo ACE inhibitory activity in the conscious normotensive rat: angiotensin I vasopressor response (Rubin et al.); set-up: species or system rat (Sprague-Dawley, male; conditions: oral, 1 mg/kg, 2 hours after administration
Protocol: The in vivo ACE inhibitory activity of the compounds is measured according to the procedure described in Rubin et al., J. Pharmacol. Exp. Ther., 204, 271-280 (1978), which utilizes the conscious normotensive tat as a subject. In this procedure, the jugular vein and carotid artery cannulae are placed in an etheranesthetized, normotensive, male, Sprague-Dawley rat for injection or oral dosage of compounds and direct recording of systemic arterial pressure, respectively. The blood pressure responses to I. V. injections of angiotensin I (500 ng/kg.), angiotensin II (100 ng/kg.) and bradykinin (10 μg/kg.) are recorded and compared with identical doses administered at various time intervals after oral dosing of a prospective angiotensin converting enzyme inhibitor. An angiotensin converting enzyme inhibitor would not be expected necessarily to lower arterial pressure in the normotensive rat, but would be expected to block angiotensin I pressor responses without grossly altering angiotensin II responses. Additionally,the vasodepressor response to bradykinin would be expected to be augmented since angiotensin converting enzyme is known to inactivate bradykinin normally.

[5] = tested on: angiotensin converting enzyme; conditions: cited from earlier work
hypertension [6] = conditions: humans with certain forms of hypertension; cited from earlier work

| Molecule | oral activity as an anti-hypertensive agent (hypertension [1]) | IC50 [2] [nM] | potency as inhibitors of angiotensin converting enzyme [5] | other results |
| --- | --- | --- | --- | --- |
| C[C@H](CS)C(=O)N1CCCC1C(=O)O (stereo in doubt) [D-3-mercapto-2methylpropanoyl-L-proline] | effective when administered orally |  |  | effectiveness among the proline derivatives (hypertension [1]; in vivo): most effective |
| C[C@H](N)C(=O)N1c2ccccc2C[C@H]1C(=O)O [Example 54, (S)-1-[(S)-2-Amino-Oxopropyl]-2,3-Dihydro-1H-Indole-2-Carboxylic Acid] |  | 3100 |  |  |
| CCOC(=O)[C@H](CCc1ccccc1)N[C@@H](C)C(=O)N1c2ccccc2C[C@H]1C(=O)O.O=C(O)/C=C\C(=O)O [Example 55, (-)-(S)-1-[(2S)-2-[[(1S)-1-(Ethoxycarbonyl)-3-Phenylpropyl]Amino]-1-Oxopropyl]-2,3-Dihydro-1H-Indole-2-Carboxylic Acid, Maleate] |  | 118 |  | Reduction of Systolic BP ([3]; 2.5 mg/kg): -13 mm. Hg.; Reduction of Systolic BP ([3]; 5.0 mg/kg): -23 mm. Hg.; Reduction of Systolic BP ([3]; 10.0 mg/kg): -33 mm. Hg.; inhibition of the vasopressor action of Angiotensin I [4]: 46% |
| CCOC(=O)[C@@H](CCc1ccccc1)N[C@@H](C)C(=O)N1c2ccccc2C[C@H]1C(=O)O [Example 56, (-)-(S)-1-[(2S)-2-[[(1R)-1-(Ethoxycarbonyl)-3-Phenylpropyl]Amino]-1-Oxopropyl]-2,3-Dihydro-1H-Indole-2-Carboxylic Acid, Maleate] |  | 900 |  |  |
| Pyr-Lys-Trp-Ala-Pro ([pGlu]KWAP) [BPP5a] |  |  | most potent |  |
| Pyr-Trp-Pro-Arg-Pro-Gln-Ile-Pro-Pro (WPRPQIPP; N-terminal pyroglutamate; printed: Trp-Pro-Arg-Pro-Gln-Ile-Pro-Pro) [BPP9a] | not orally active |  | most potent | anti-hypertensive effect in clinical studies (hypertension [6]): effective anti-hypertensive agent |
